Each structure is given as a SMILES string.

One assay addresses kallikrein (Homo sapiens (Human), UniProt P03952). Kind of assay: In vitro cellular assay (contact assay): kallikrein activity in ellagic acid-activated human plasma, substrate Z-FR-2-AMC. As to conditions: human plasma activated with ellagic acid, Z-FR-2-AMC substrate, 37° C.; read-out: Contact Assay EC50. It is filed as biochemical. The procedure: The ability of the compounds disclosed herein to inhibit cellular kallikrein activity was quantified and the respective EC50 value was determined.
All dilutions were prepared in an assay buffer comprising 50 mM Tris-HCl pH 7.2, 150 mM NaCl, and 0.01% Triton X-100.
The ten solutions of the test compounds, prepared by serial dilution, were further diluted 50-fold in the assay buffer.
Human plasma is thawed on ice and centrifuged for 15 min at 4° C. to remove platelets. A 1 mM stock solution of ellagic acid is diluted to 8 μM and mixed with human plasma, after removing platelets, at a ratio of 1:0.8.
A 22.5 μL volume of the final mixture of human plasma and ellagic acid was added to a 96-well microwell plate and the plate was incubated for 15 min at 37° C.
The CINH inhibitor at various concentrations, prepared by serial dilutions as described above, were added to the inhibitor control wells. […] Each CINH concentration is tested in duplicates.
The test compounds at various concentrations, also prepared by serial dilutions as described above, are added to the test wells. […] Each test compound concentration was tested in duplicates.
In addition to the inhibitor control and test wells, the 96 well assay plate includes positive control wells which contained the mixture of human plasma and ellagic acid without C1NH inhibitor or test compounds, and background wells which contained neither the mixture of human plasma and ellagic acid nor the test compounds. The total volume of liquid in positive control and background wells was brought up to 35 μL, using the assay buffer.
The assay plate containing C1NH inhibitors and test compounds mixed with human plasma and ellagic acid and appropriate controls was incubated at 37° C. for 5 min. […] The reagents were mixed well by shaking the plate gently for 30 sec.
The enzyme reaction was quantified by immediate kinetic reading of the assay plate using excitation/emission wavelengths of 330 nm/440 nm respectively. Fluorescence intensity was recorded for 60 min, using a time interval of 43 sec.
The inhibition activity of the test compounds were evaluated using the IC50 values, calculated according to the dose-response curve of the test compounds, fitted using the “log(inhibitor)-response (variable slope)” equation in GraphPadPrism software (GraphPad Software, Inc.).
The percentage inhibition was calculated using the following equation:
[formula] where, Mean(BG) is the average value of the fluorescence intensity of the background wells and Mean(PC) is the average value of the fluorescence intensity of the positive control wells.
Table 4 provides the EC50 values of various compounds disclosed herein.

The target in a further assay is human Plasma Kallikrein (Homo sapiens (Human), UniProt P03952). As to the kind of experiment: In vitro enzyme inhibition of human plasma kallikrein (PFR-AMC cleavage). It is filed as biochemical. Conditions: human plasma kallikrein, Pro-Phe-Arg-AMC substrate, 37° C.; read-out: hPK IC50. A digest of the protocol:
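Compound pre-incubated with human plasma kallikrein 5 min at 37° C in 50 mM Tris-HCl pH 7.5, 150 mM NaCl, 0.01% Triton X-100. Reaction started with PFR-AMC, cleavage read kinetically at 37° C every 43 s for 1 h.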

Chain of kallikrein (P03952 20-638): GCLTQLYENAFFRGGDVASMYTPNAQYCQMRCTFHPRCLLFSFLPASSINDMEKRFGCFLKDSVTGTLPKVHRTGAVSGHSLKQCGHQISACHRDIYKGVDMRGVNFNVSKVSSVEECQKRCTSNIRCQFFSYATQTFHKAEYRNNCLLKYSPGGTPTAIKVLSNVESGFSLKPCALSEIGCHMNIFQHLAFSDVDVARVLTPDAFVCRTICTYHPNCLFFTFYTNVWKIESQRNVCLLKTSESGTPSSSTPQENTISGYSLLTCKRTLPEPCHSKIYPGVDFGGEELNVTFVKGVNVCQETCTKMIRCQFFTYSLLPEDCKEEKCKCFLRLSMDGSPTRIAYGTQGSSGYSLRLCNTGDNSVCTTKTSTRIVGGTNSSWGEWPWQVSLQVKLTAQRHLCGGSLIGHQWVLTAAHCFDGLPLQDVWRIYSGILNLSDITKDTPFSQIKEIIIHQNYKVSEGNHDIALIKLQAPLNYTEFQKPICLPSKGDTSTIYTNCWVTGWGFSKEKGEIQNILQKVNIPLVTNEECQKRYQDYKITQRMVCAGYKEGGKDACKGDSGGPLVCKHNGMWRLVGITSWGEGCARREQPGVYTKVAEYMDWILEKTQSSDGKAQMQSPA
Chain of human Plasma Kallikrein (P03952 20-638): as above

For `NC(=O)c1cc(Cc2cc(C(=O)NCc3ccc4c(N)nccc4c3)ccn2)cc2cc(Cl)cnc12` [Example 64, 6-((4-(((1-aminoisoquinolin-6-yl)methyl)carbamoyl)pyridin-2-yl)methyl)-3-chloroquinoline-8-carboxamide], the EC50 at kallikrein is less than 100 nM. Besides, on human Plasma Kallikrein, the IC50 was less than 100 nM.
Consider `NC(=O)c1cc(Cc2cc(C(=O)NCc3ccc4[nH]cc(Cl)c4c3F)ccn2)cc2cc(Cl)cnc12` [Example 65, 3-chloro-6-((4-(((3-chloro-4-fluoro-1H-indol-5-yl)methyl)carbamoyl)pyridin-2-yl)methyl)quinoline-8-carboxamide], for which the concentration for a half-maximal effect (EC50) at kallikrein was less than 100 nM. Also, the IC50 on human Plasma Kallikrein is less than 100 nM.
As to `NC(=O)c1cc(Cc2cc(C(=O)NCc3cc4cc[nH]c4cc3F)ccn2)cc2cc(Cl)cnc12` [Example 66, 3-chloro-6-((4-(((6-fluoro-1H-indol-5-yl)methyl)carbamoyl)pyridin-2-yl)methyl)quinoline-8-carboxamide], the EC50 on kallikrein is 100 to 1000 nM. Further, on human Plasma Kallikrein, the IC50 was less than 100 nM.
Regarding `Cc1cc(N)nc(C)c1CNC(=O)c1ccnc(Cc2cc(S(C)(=O)=O)c3ncc(Cl)cc3c2)c1` [Example 67, N-((6-amino-2,4-dimethylpyridin-3-yl)methyl)-2-((3-chloro-8-(methylsulfonyl)quinolin-6-yl)methyl)isonicotinamide], the EC50 on kallikrein is less than 100 nM. At human Plasma Kallikrein, the IC50 is less than 100 nM.
As to `CS(=O)(=O)c1cc(Cc2cc(C(=O)NCc3cc4c(Cl)c[nH]c4cc3F)ccn2)cc2cc(Cl)cnc12` [Example 68, N-((3-chloro-6-fluoro-1H-indol-5-yl)methyl)-2-((3-chloro-8-(methylsulfonyl)quinolin-6-yl)methyl)isonicotinamide], the EC50 at kallikrein is less than 100 nM. Further, the IC50 on human Plasma Kallikrein is less than 100 nM.
`Cc1nc(N)ccc1CNC(=O)c1ccnc(Cc2cc(S(C)(=O)=O)c3ncc(Cl)cc3c2)c1` [Example 69, N-((6-amino-2-methylpyridin-3-yl)methyl)-2-((3-chloro-8-(methylsulfonyl)quinolin-6-yl)methyl)isonicotinamide]: the EC50 at kallikrein was less than 100 nM. Moreover, on human Plasma Kallikrein, the IC50 is less than 100 nM.
For `Cc1cnc2c(C#N)cc(Cc3cc(C(=O)NCc4c(C)cc(N)nc4C)ccn3)cc2c1` [Example 70, N-((6-amino-2,4-dimethylpyridin-3-yl)methyl)-2-((8-cyano-3-methylquinolin-6-yl)methyl)isonicotinamide], the EC50 at kallikrein was less than 100 nM. In addition, the IC50 on human Plasma Kallikrein was less than 100 nM.
As for `Cc1cnc2c(C#N)cc(Cc3cc(C(=O)NCc4ccc5c(N)nccc5c4)ccn3)cc2c1` [Example 71, N-((1-aminoisoquinolin-6-yl)methyl)-2-((8-cyano-3-methylquinolin-6-yl)methyl)isonicotinamide], the 50% effective concentration (EC50) at kallikrein is less than 100 nM. In addition, the IC50 at human Plasma Kallikrein is less than 100 nM.
Consider `Cc1cnc2c(C#N)cc(Cc3cc(C(=O)NCc4cc5c(Cl)c[nH]c5cc4F)ccn3)cc2c1` [Example 72, N-((3-chloro-6-fluoro-1H-indol-5-yl)methyl)-2-((8-cyano-3-methylquinolin-6-yl)methyl)isonicotinamide], for which the EC50 at kallikrein lay within 100 to 1000 nM. In addition, the IC50 on human Plasma Kallikrein is less than 100 nM.
Turning to `Cc1cnc2c(C#N)cc(Cc3cc(C(=O)NCc4cnc5[nH]cc(Cl)c5c4)ccn3)cc2c1` [Example 73, N-((3-chloro-1H-pyrrolo[2,3-b]pyridin-5-yl)methyl)-2-((8-cyano-3-methylquinolin-6-yl)methyl)isonicotinamide], the EC50 on kallikrein is 100 to 1000 nM. Moreover, the IC50 at human Plasma Kallikrein was less than 100 nM.
The like results for `Cc1cnc2c(C(N)=O)cc(Cc3cc(C(=O)NCc4c(C)cc(N)nc4C)ccn3)cc2c1` [Example 77, 6-((4-(((6-amino-2,4-dimethylpyridin-3-yl)methyl)carbamoyl)pyridin-2-yl)methyl)-3-methylquinoline-8-carboxamide] were, in that order, less than 100 nM and less than 100 nM.

The values are drawn from US9611252B2 (LifeSci Pharmaceuticals, Inc., priority 2013, dated 2017).
